*1 amine or outer side, *2 acyl side, *3 side chain or, on linkers, in order; H or OH if unused. Where a SMILES comes first, the peptide text is derived from it. Side-chain parts run from the residue outwards. [ ]: non-standard residue; d: D form. The star is where a group is joined. C20 diacid = O=C(O)CCCCCCCCCCCCCCCCCCC(=O)*; γGlu = O=C(O)[C@H](CCC(=O)[*:2])N[*:1]; 4Pal = N[C@@H](Cc1ccncc1)C(=O)O; αMeL = CC(C)C[C@](C)(N)C(=O)O; Orn = NCCC[C@H](N)C(=O)O; AEEA = NCCOCCOCC(=O)O; Aib = CC(C)(N)C(=O)O
Target: T1, human GLP-1R (Homo sapiens, UniProt P43220)
T1 construct: expressed in transfected cells; crude membranes
Assay: [125I]-GLP-1 binding, SPA with WGA beads, 0.1% bacitracin
Conditions: geometric mean, read-out: hGLP1R Ki
Method in brief: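 Binding buffer was 25 mM HEPES pH 7.4 with 2.5 mM CaCl2, 1 mM MgCl2, 0.1% (w/v) bacitracin, 0.003% Tween-20 and EDTA-free protease inhibitors. Four-parameter regression gave IC50, converted to Ki (geometric mean, SEM, n independent days).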

T1 sequence (P43220 24-463): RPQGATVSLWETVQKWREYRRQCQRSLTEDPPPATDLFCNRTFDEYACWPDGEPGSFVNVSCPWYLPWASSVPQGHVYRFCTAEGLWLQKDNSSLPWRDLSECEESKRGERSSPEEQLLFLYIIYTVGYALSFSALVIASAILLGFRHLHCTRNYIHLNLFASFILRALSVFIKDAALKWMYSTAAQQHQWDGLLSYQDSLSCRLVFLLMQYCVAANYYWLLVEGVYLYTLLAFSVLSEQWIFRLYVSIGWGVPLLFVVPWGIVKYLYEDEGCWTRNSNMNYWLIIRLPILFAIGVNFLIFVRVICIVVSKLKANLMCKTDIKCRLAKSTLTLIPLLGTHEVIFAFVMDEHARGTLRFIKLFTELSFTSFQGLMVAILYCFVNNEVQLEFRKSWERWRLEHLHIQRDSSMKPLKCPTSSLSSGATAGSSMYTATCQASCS

SMILES	Ki [nM]
CC[C@H](C)[C@H](NC(=O)[C@H](Cc1ccccc1)NC(=O)[C@@H](NC(=O)CNC(=O)[C@H](CCC(=O)O)NC(=O)C(C)(C)NC(=O)[C@@H](N)Cc1ccc(O)cc1)[C@@H](C)O)C(=O)N[C@@H](CO)C(=O)N[C@@H](CC(=O)O)C(=O)N[C@@H](Cc1ccc(O)cc1)C(=O)N[C@@H](CO)C(=O)N[C@H](C(=O)N[C@@](C)(CC(C)C)C(=O)N[C@@H](CC(C)C)C(=O)N[C@@H](CC(=O)O)C(=O)N[C@@H](CCCCN)C(=O)N[C@@H](CCCCNC(=O)COCCOCCNC(=O)COCCOCCNC(=O)CC[C@H](NC(=O)CCCCCCCCCCCCCCCCCCC(=O)O)C(=O)O)C(=O)N[C@@H](Cc1c[nH]cn1)C(=O)N[C@@H](CCC(N)=O)C(=O)NC(C)(C)C(=O)N[C@@H](CC(=O)O)C(=O)N[C@@H](Cc1ccccc1)C(=O)N[C@H](C(=O)N[C@@H](CCC(=O)O)C(=O)N[C@@H](Cc1ccncc1)C(=O)N[C@@H](CC(C)C)C(=O)N[C@@H](CC(C)C)C(=O)N[C@@H](C)C(=O)N[C@@H](CCC(N)=O)C(=O)NCC(=O)N1CCC[C@H]1C(=O)N[C@@H](CO)C(=O)N[C@@H](CO)C(=O)NCC(=O)N[C@@H](C)C(=O)N1CCC[C@H]1C(=O)N1CCC[C@H]1C(=O)N1CCC[C@H]1C(=O)N[C@@H](CO)C(N)=O)C(C)C)[C@@H](C)CC [Example 79] (H-Y[Aib]EGTFISDYSI[αMeL]LDKK([AEEA-AEEA-γGlu-C20 diacid])HQ[Aib]DFVE[4Pal]LLAQGPSSGAPPPS-NH2)	486
CC[C@H](C)[C@H](NC(=O)[C@H](CCCN)NC(=O)[C@H](CC(=O)O)NC(=O)[C@H](CC(C)C)NC(=O)[C@](C)(CC(C)C)NC(=O)[C@@H](NC(=O)[C@H](CO)NC(=O)[C@H](Cc1ccc(O)cc1)NC(=O)[C@H](CC(=O)O)NC(=O)[C@H](CO)NC(=O)[C@@H](NC(=O)[C@H](Cc1ccccc1)NC(=O)[C@@H](NC(=O)CNC(=O)[C@H](CCC(=O)O)NC(=O)C(C)(C)NC(=O)[C@@H](N)Cc1ccc(O)cc1)[C@@H](C)O)[C@@H](C)CC)[C@@H](C)CC)C(=O)N[C@@H](Cc1c[nH]cn1)C(=O)N[C@@H](CCC(N)=O)C(=O)NC(C)(C)C(=O)N[C@@H](CCC(=O)O)C(=O)N[C@@H](Cc1ccccc1)C(=O)N[C@H](C(=O)N[C@@H](CCC(=O)O)C(=O)N[C@@H](Cc1ccc(O)cc1)C(=O)N[C@@H](CCCCNC(=O)COCCOCCNC(=O)COCCOCCNC(=O)CC[C@H](NC(=O)CCCCCCCCCCCCCCCCCCC(=O)O)C(=O)O)C(=O)N[C@@H](CC(C)C)C(=O)N[C@@H](CCC(=O)O)C(=O)NCC(=O)NCC(=O)N1CCC[C@H]1C(=O)N[C@@H](CO)C(=O)N[C@@H](CO)C(=O)NCC(=O)N[C@@H](C)C(=O)N1CCC[C@H]1C(=O)N1CCC[C@H]1C(=O)N1CCC[C@H]1C(=O)N[C@@H](CO)C(N)=O)C(C)C [Example 107] (H-Y[Aib]EGTFISDYSI[αMeL]LD[Orn]IHQ[Aib]EFVEYK([AEEA-AEEA-γGlu-C20 diacid])LEGGPSSGAPPPS-NH2)	> 911

From US12723063B2, “GIPR-agonist compounds” (Eli Lilly and Company, priority 2019, dated 2026)
